Assay results from the supplement of paper PMC10307832.

Experiments:
Assay in all cases: relative viability (nuclei count vs DMSO), 5 days (fraction); higher = more cells survive
Ruxolitinib + Alpelisib = compound: N#CC[C@H](C1CCCC1)n1cc(-c2ncnc3[nH]ccc23)cn1 [Ruxolitinib] + Cc1nc(NC(=O)N2CCC[C@H]2C(N)=O)sc1-c1ccnc(C(C)(C)C(F)(F)F)c1 [Alpelisib] (partner 2 µM)
How it was run: (§1)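 Relative viability was taken as the ratio of nuclei in treated wells to nuclei in vehicle wells. Lung cancer cell lines in 1536-well plates received compounds by pin tool one day after seeding, either one drug alone or a fixed anchor-drug dose plus five library-drug doses (not always all listed) in √10 steps. Nuclei were counted on 4× images after 5 days of treatment, and values are medians of duplicate plates.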

VE-821 + Pemetrexed = compound: CS(=O)(=O)c1ccc(-c2cnc(N)c(C(=O)Nc3ccccc3)n2)cc1 [VE-821] + Nc1nc2[nH]cc(CCc3ccc(C(=O)N[C@@H](CCC(=O)O)C(=O)O)cc3)c2c(=O)[nH]1 [Pemetrexed] (partner 0.2 µM)
How it was run: as §1

Ruxolitinib + Decitabine = compound: N#CC[C@H](C1CCCC1)n1cc(-c2ncnc3[nH]ccc23)cn1 [Ruxolitinib] + Nc1ncn([C@H]2C[C@H](O)[C@@H](CO)O2)c(=O)n1 [Decitabine] (partner 2 µM)
How it was run: as §1

VE-821 + Trametinib = compound: CS(=O)(=O)c1ccc(-c2cnc(N)c(C(=O)Nc3ccccc3)n2)cc1 [VE-821] + CC(=O)Nc1cccc(-n2c(=O)n(C3CC3)c(=O)c3c(Nc4ccc(I)cc4F)n(C)c(=O)c(C)c32)c1 [Trametinib] (partner 0.02 µM)
How it was run: as §1

Cell Line | relative viability (Ruxolitinib + Alpelisib; first compound 0.08 µM) | relative viability (Ruxolitinib + Alpelisib; first compound 0.253 µM) | relative viability (Ruxolitinib + Alpelisib; first compound 0.8 µM) | relative viability (Ruxolitinib + Alpelisib; first compound 2.53 µM) | relative viability (Ruxolitinib + Alpelisib; first compound 8 µM) | relative viability (VE-821 + Pemetrexed; first compound 0.08 µM) | relative viability (VE-821 + Pemetrexed; first compound 0.253 µM) | relative viability (VE-821 + Pemetrexed; first compound 0.8 µM) | relative viability (VE-821 + Pemetrexed; first compound 2.53 µM) | relative viability (VE-821 + Pemetrexed; first compound 8 µM) | relative viability (Ruxolitinib + Decitabine; first compound 0.08 µM) | relative viability (Ruxolitinib + Decitabine; first compound 0.253 µM) | relative viability (Ruxolitinib + Decitabine; first compound 0.8 µM) | relative viability (Ruxolitinib + Decitabine; first compound 2.53 µM) | relative viability (Ruxolitinib + Decitabine; first compound 8 µM) | relative viability (VE-821 + Trametinib; first compound 0.08 µM) | relative viability (VE-821 + Trametinib; first compound 0.253 µM) | relative viability (VE-821 + Trametinib; first compound 0.8 µM) | relative viability (VE-821 + Trametinib; first compound 2.53 µM) | relative viability (VE-821 + Trametinib; first compound 8 µM)
NCI-H596 | 0.521 | 0.567 | 0.559 | 0.531 | 0.547 | 0.511 | 0.48 | 0.485 | 0.454 | 0.374 | 0.903 | 0.96 | 1.14 | 1.04 | 1.08 | 0.78 | 0.802 | 0.752 | 0.798 | 0.594
201T | 1.11 | 1.11 | 1.27 | 1.39 | 1.33 | 0.333 | 0.303 | 0.324 | 0.293 | 0.231 | 0.949 | 0.914 | 1 | 1.02 | 0.973 | 0.743 | 0.721 | 0.725 | 0.734 | 0.693
HOP-62 |  | 0.813 | 1.05 | 0.96 | 0.723 | 0.305 | 0.336 | 0.244 | 0.235 | 0.223 | 0.197 | 0.258 | 0.227 | 0.208 | 0.19 | 0.402 | 0.413 | 0.351 | 0.403 | 0.429
NCI-H1975 | 0.663 | 0.559 | 0.587 | 0.482 | 0.338 | 0.297 | 0.282 | 0.264 | 0.213 | 0.167 | 0.329 | 0.384 | 0.36 | 0.304 | 0.222 | 0.359 | 0.37 | 0.199 | 0.352 | 0.227
NCI-H1755 | 0.885 | 0.904 | 0.97 | 0.796 | 0.623 | 0.464 | 0.655 | 0.431 | 0.361 | 0.247 | 0.742 | 0.686 | 0.755 | 0.694 | 0.667 | 0.86 | 0.737 | 0.781 | 0.711 | 0.741
NCI-H2023 | 0.617 | 0.56 | 0.595 | 0.489 | 0.6 | 0.24 | 0.202 | 0.17 | 0.123 | 0.0894 | 0.214 | 0.264 | 0.267 | 0.218 | 0.271 | 0.575 | 0.488 | 0.349 | 0.252 | 0.181
EKVX | 0.769 | 0.862 | 1 | 0.92 | 0.832 | 0.422 | 0.373 | 0.419 | 0.341 | 0.227 |  | 0.3 | 0.35 | 0.337 | 0.414 | 0.347 | 0.317 | 0.298 | 0.376 | 0.3
LCLC-97TM1 | 0.215 | 0.204 | 0.275 | 0.235 | 0.327 | 0.191 | 0.186 | 0.164 | 0.189 | 0.125 | 0.221 | 0.242 | 0.22 | 0.265 | 0.222 | 0.225 | 0.152 | 0.194 | 0.227 | 0.217
